# Results: patent US20090029995A1, “HETERO BIARYL DERIVATIVES AS MATRIX METALLOPROTEINASE INHIBITORS” (WARNER-LAMBERT COMPANY, priority 2002, published 2009)
# Where a name gives a salt, the structure may show the parent alone.
# Tested on: not given
# Assay: not given
# Settings: not given
row,melting point,Molecule
1,228 °C (dec.),"COc1cc(CNC(=O)c2cccc(-c3nnn(Cc4ccc(C(=O)O)cc4)n3)c2)ccn1 (as salt: TFA) [Example 33, 4-(5-{3-[(2-Methoxy-pyridin-4-ylmethyl)-carbamoyl]-phenyl}-tetrazol-2-ylmethyl)-benzoic acid]"
2,153 to 154 °C,"COC(=O)c1ccc(CNC(=O)c2cccc(-c3nnn(Cc4cccc(OC)c4)n3)c2)cc1 [Example 3, 4-({3-[2-(3-Methoxy-benzyl)-2H-tetrazol-5-yl]-benzoylamino}-methyl)-benzoic acid methyl ester]"
3,222 to 224 °C,"O=C(O)c1ccc(CNC(=O)c2cccc(-c3nnn(Cc4ccc(F)cc4)n3)c2)cc1 [Example 6, 4-({3-[2-(4-Fluoro-benzyl)-2H-tetrazol-5-yl]-benzoylamino}-methyl)-benzoic acid]"
4,217 to 219 °C,"O=C(O)c1ccc(CNC(=O)c2cccc(-c3nnn(Cc4cccc(F)c4)n3)c2)cc1 [Example 8, 4-({3-[2-(3-Fluoro-benzyl)-2H-tetrazol-5-yl]-benzoylamino}-methyl)-benzoic acid]"
5,158 to 160 °C,COC(=O)c1ccc(CNC(=O)c2cccc(-c3nnn(Cc4nccs4)n3)c2)cc1 [Example 9]
6,107 to 108 °C,"C/C=C/Cn1nnc(-c2cccc(C(=O)NCc3ccc(C(=O)OC)cc3)c2)n1 [Example 10, 4-{[3-(2-But-2-enyl-2H-tetrazol-5-yl)-benzoylamino]-methyl}benzoic acid methyl ester]"
7,143 to 145 °C,"COc1ccc(Cn2nnc(-c3cccc(C(=O)NCc4nccs4)c3)n2)cc1 [Example 11, 3-[2-(4-Methoxy-benzyl)-2H-tetrazol-5-yl]-N-thiazol-2-ylmethyl-benzamide]"
8,161 to 162 °C,"COc1ccc(Cn2nnc(-c3cccc(C(=O)NCc4ccc(CN5CCOCC5)cc4)c3)n2)cc1 [Example 12, 3-[2-(4-Methoxy-benzyl)-2H-tetrazol-5-yl]-N-(4-morpholin-4-ylmethyl-benzyl)-benzamide]"
9,150 to 151 °C,"COc1ccc(Cn2nnc(-c3cccc(C(=O)NCc4ccc(F)c(Cl)c4)c3)n2)cc1 [Example 13, N-(3-Chloro-4-fluoro-benzyl)-3-[2-(4-methoxy-benzyl)-2H-tetrazol-5-yl]-benzamide]"
10,162 to 163 °C,"COc1ccc(Cn2nnc(-c3cccc(C(=O)NCc4cccc(C(F)(F)F)c4)c3)n2)cc1 [Example 14, 3-[2-(4-Methoxy-benzyl)-2H-tetrazol-5-yl]-N-(3-trifluoromethyl-benzyl)-benzamide]"
11,207 to 208 °C,"COc1ccc(Cn2nnc(-c3cccc(C(=O)NCc4ccc5nsnc5c4)c3)n2)cc1 [Example 15, N-2,1,3-Benzothiadiazol-5-ylmethyl-3-[2-(4-methoxy-benzyl)-2H-tetrazol-5-yl]-benzamide]"

# Target: T1, MMP-13 catalytic domain (Homo sapiens, UniProt P45452)
# T1 construct: use the catalytic domain of the MMP-13 enzyme, namely matrix metalloproteinase-13 catalytic domain (“MMP-13CD”)
# Assay: MMP-13 catalytic domain inhibition (thiopeptolide substrate hydrolysis)
# Assay type: biochemical
# Settings: read-out: MMP-13CD IC50
# Source text: The assays measure the amount by which a test compound reduces the hydrolysis of a thiopeptolide substrate catalyzed by a matrix metalloproteinase enzyme. […] One such assay is described below in Biological Method 1.
# Some of the particular methods described below use the catalytic domain of the MMP-13 enzyme, namely matrix metalloproteinase-13 catalytic domain (“MMP-13CD”), rather than the corresponding full-length enzyme, MMP-13.
# Thiopeptolide substrates show virtually no decomposition or hydrolysis at or below neutral pH in the absence of a matrix metalloproteinase enzyme. A typical thiopeptolide substrate commonly utilized for assays is Ac-Pro-Leu-Gly-thioester-Leu-Leu-Gly-OEt. […] Assays are carried out with and without matrix metalloproteinase inhibitor compounds, and the amount of hydrolysis is compared for a determination of inhibitory activity of the test compounds.
row,Molecule,IC50
1,"O=C(O)c1ccc(Cn2nnc(-c3cccc(-c4nnc(Cc5ccccc5)o4)c3)n2)cc1 [Example A1, 4-{5-[3-(5-Benzyl-[1,3,4]oxadiazol-2-yl)-phenyl]-tetrazol-2-ylmethyl}-benzoic acid]",0.44 µM
2,"O=C(O)c1ccc(Cn2nnc(-c3cccc(-c4nnc(-c5ccccc5)o4)c3)n2)cc1 [Example A2, 4-{5-[3-(5-Phenyl-[1,3,4]oxadiazol-2-yl)-phenyl]-tetrazol-2-ylmethyl}-benzoic acid]",> 3 µM
3,"CC(C)(C)OC(=O)c1ccc(Cn2nnc(-c3cccc(-c4ncc(-c5ccccc5)o4)c3)n2)cc1 [Example A3, 4-{5-[3-(5-Phenyl-oxazol-2-yl)-phenyl]-tetrazol-2-ylmethyl}-benzoic acid tertiary butyl ester]",1.4 µM
4,"O=C(O)c1ccc(Cn2nnc(-c3cccc(-c4ncc(-c5ccccc5)o4)c3)n2)cc1 [Example A4, 4-{5-[3-(5-Phenyl-oxazol-2-yl)-phenyl]-tetrazol-2-ylmethyl}-benzoic acid]",0.4 µM
5,"Fc1ccc(Cn2nnc(-c3cccc(-c4ncc(-c5ccccc5)o4)c3)n2)cc1F [Example A5, 2-(3,4-Difluoro-benzyl)-5-[3-(5-phenyl-oxazol-2-yl)-phenyl]-2H-tetrazole]",1.8 µM
6,"COc1ccc(-c2cnc(-c3cccc(-c4nnn(Cc5ccc(C(=O)OC(C)(C)C)cc5)n4)c3)o2)cc1 [Example A6, 4-(5-{3-[5-(4-Methoxy-phenyl)-oxazol-2-yl]-phenyl}-tetrazol-2-ylmethyl)-benzoic acid tertiary butyl ester]",1 µM
7,"COc1ccc(-c2cnc(-c3cccc(-c4nnn(Cc5ccc(C(=O)O)cc5)n4)c3)o2)cc1 [Example A7, 4-(5-{3-[5-(4-Methoxy-phenyl)-oxazol-2-yl]-phenyl}-tetrazol-2-ylmethyl)-benzoic acid]",0.018 µM
8,"COc1ccc(-c2cnc(-c3cccc(-c4nnn(Cc5ccc(F)c(F)c5)n4)c3)o2)cc1 [Example A8, 2-(3,4-Difluoro-benzyl)-5-{3-[5-(4-methoxy-phenyl)-oxazol-2-yl]-phenyl}-2H-tetrazole]",1.3 µM
9,"COc1ccc(-c2cnc(-c3cccc(-c4nnn(Cc5ccc(C(=O)O)cc5)n4)c3)s2)cc1 [Example A9, 4-(5-{3-[5-(4-Methoxy-phenyl)-thiazol-2-yl]-phenyl}-tetrazol-2-ylmethyl)-benzoic acid]",0.0036 µM
10,[4-(5-{3-[3-(4-Fluoro-phenyl)-prop-1-ynyl]-phenyl}-tetrazol-2-ylmethyl)-phenyl]-phosphonic acid [Example D2],0.013 µM

# Results, then the molecule that gave them:
row,IC50,Molecule
1,49 µM,"COc1ccc(-c2cnc(-c3cccc(-c4nnc(-c5ccc(C(=O)O)cc5)o4)c3)o2)cc1 [Example B1, 4-(5-{3-[5-(4-Methoxy-phenyl)-oxazol-2-yl]-phenyl}-[1,3,4]oxadiazol-2-yl)-benzoic acid]"
2,0.2 µM,"COc1ccc(-c2cnc(-c3cccc(-c4nnc(Cc5ccc(C(=O)O)cc5)o4)c3)o2)cc1 [Example B2, 4-(5-{3-[5-(4-Methoxy-phenyl)-oxazol-2-yl]-phenyl}-[1,3,4]oxadiazol-2-ylmethyl)-benzoic acid]"
3,0.014 µM,"COc1ccc(-c2cnc(-c3cccc(-c4nnc(Cc5ccc(C(=O)O)cc5)s4)c3)o2)cc1 [Example B3, 4-(5-{3-[5-(4-Methoxy-phenyl)-oxazol-2-yl]-phenyl}-[1,3,4]thiadiazol-2-ylmethyl)-benzoic acid]"
4,3.4 µM,"O=C(O)c1ccc(-c2nnc(-c3cccc(C#CCc4ccccc4)c3)o2)cc1 [Example C1, 4-{5-[3-(3-Phenyl-prop-1-ynyl)-phenyl]-[1,3,4]oxadiazol-2-yl}-benzoic acid]"
5,2.8 µM,"NCc1ccc(Cn2nnc(-c3cccc(C#CCc4ccccc4)c3)n2)cc1 [Example D6, 4-{5-[3-(3-Phenyl-prop-1-ynyl)-phenyl]-tetrazol-2-ylmethyl}-benzylamine]"
6,1.3 µM,"CCCC(=O)NCc1ccc(Cn2nnc(-c3cccc(C#CCc4ccccc4)c3)n2)cc1 [Example D7, N-(4-{5-[3-(3-Phenyl-prop-1-ynyl)-phenyl]-tetrazol-2-ylmethyl}-benzyl)-butyramide]"
7,0.33 µM,"CC(=O)NCc1ccc(Cn2nnc(-c3cccc(C#CCc4ccccc4)c3)n2)cc1 [Example D8, N-(4-{5-[3-(3-Phenyl-prop-1-ynyl)-phenyl]-tetrazol-2-ylmethyl}-benzyl)-acetamide]"
8,0.099 µM,"O=C(O)c1ccc(Cn2nnc(-c3cccc(C(=O)NCc4ccncc4)c3)n2)cc1 [Example F1, 4-(5-{3-[(Pyridin-4-ylmethyl)-carbamoyl]-phenyl}-tetrazol-2-ylmethyl)-benzoic acid; compound with trifluoro-acetic acid]"
9,0.28 µM,"O=C(O)c1ccc(Cn2nnc(-c3cccc(C(=O)NCc4cccnc4)c3)n2)cc1 [Example F2, 4-(5-{3-[(Pyridin-3-ylmethyl)-carbamoyl]-phenyl}-tetrazol-2-ylmethyl)-benzoic acid; compound with trifluoro-acetic acid]"
10,0.086 µM,"O=C(O)c1ccc(Cn2nnc(-c3cccc(C#CCOc4ccc(F)cc4)c3)n2)cc1 [Example G4, 4-(5-{3-[3-(4-Fluoro-phenoxy)-prop-1-ynyl]-phenyl}-tetrazol-2-ylmethyl)-benzoic acid]"
11,0.0068 µM,"O=C(O)c1ccc(Cn2nnc(-c3cccc(C#CCn4ccnc4)c3)n2)cc1 [Example G5, 4-{5-[3-(3-Imidazol-1-yl-prop-1-ynyl)-phenyl]-tetrazol-2-ylmethyl}-benzoic acid]"
12,0.0064 µM,"O=C(O)c1ccc(Cn2nnc(-c3cccc(C#CCn4ccc(=O)cc4)c3)n2)cc1 [Example G6, 4-(5-{3-[3-(4-Oxo-4H-pyridin-1-yl)-prop-1-ynyl]-phenyl}-tetrazol-2-ylmethyl)-benzoic acid]"
13,0.029 µM,"O=C(O)c1ccc(Cn2nnc(-c3cccc(C#CCn4cnc(-c5ccccc5)c4)c3)n2)cc1 [Example G7, 4-(5-{3-[3-(4-Phenyl-imidazol-1-yl)-prop-1-ynyl]-phenyl}-tetrazol-2-ylmethyl)-benzoic acid]"
14,1.8 µM,"CC(C#Cc1cccc(-c2nnn(Cc3ccc(C(=O)O)cc3)n2)c1)c1ccccc1 (stereo not shown) [Example G8, 4-{5-[3-(3-Phenyl-but-1-ynyl)-phenyl]-tetrazol-2-ylmethyl}-benzoic acid]"
15,0.0083 µM,"O=C(O)c1ccc(Cn2nnc(-c3cncc(C#CCc4ccc(F)cc4)c3)n2)cc1 [Example H2, 4-(5-{5-[3-(4-Fluoro-phenyl)-prop-1-ynyl]-pyridin-3-yl}-tetrazol-2-ylmethyl)-benzoic acid]"
16,0.16 µM,"O=C(O)c1ccc(Cn2nnc(-c3cncc(C#CCn4ccnc4)c3)n2)cc1 [Example H3, 4-{5-[5-(3-Imidazol-1-yl-prop-1-ynyl)-pyridin-3-yl]-tetrazol-2-ylmethyl}-benzoic acid]"
